Laboratory results: patent US20220378756A1, “ACTIVATING PYRUVATE KINASE R” (FORMA Therapeutics, Inc., priority 2019, published 2022)
Values joined by “and” are separate entries in the source; they are usually repeats but may differ in a detail not shown here. Equal entries are not always repeated.

Legend:
[1] = system: ATP and 2,3-DPG levels in blood cells; test: 28-day daily dosing in non-human primates; assay type: in vivo
Procedure: 2,3-DPG levels in blood cells from non-human primates receiving daily doses of Compound 1 at 100, 350 and 550 mg/kg for 28 days were measured. Dose dependent decreases in 2,3-DPG levels were observed, with up to a 40% decrease from pretreatment levels, as illustrated in FIG. 22.

[2] = Phase 1 SAD/MAD, healthy volunteers: pharmacokinetics; assay type: in vivo, human
Description: This is a first-in-human (FIH), Phase 1 study of Compound 1 that will characterize the safety, PK, and PD of Compound 1 after a single dose and after repeated dosing first in healthy adult volunteers and then in adolescents or adults with sickle cell disease. Initially, a dose range of Compound 1 in single ascending dose (SAD) escalation cohorts will be explored in healthy subjects. Enrollment of healthy subjects into 2-week multiple ascending dose (MAD) escalation cohorts will be initiated once the safety and PK from at least two SAD cohorts is available to inform the doses for the 2-week MAD portion of the study. The MAD cohorts will then run in parallel to the single dose cohorts. A single dose cohort is planned to understand food effects (FE) on the PK of Compound 1. […] Multiple dose studies in SCD subjects will then be initiated upon completion of MAD studies in healthy volunteers. Compound 1 will be administered in 25 mg and 100 mg tablets delivered orally.
In this study, SAD/MAD cohorts are randomized (3 to 1) to receive Compound 1 or placebo (P). Compound 1 was evaluated first in 4 healthy SAD cohorts and 4 healthy MAD (14-day dosing period) cohorts. Based on the safety, and PK/PD profile from HS, Compound 1 is then evaluated in 1 SCD SAD cohort and 2 SCD MAD cohorts. Specifically, based on the safety and pharmacokinetic/pharmacodynamics (PK/PD) profile in healthy volunteer studies, Compound 1 is evaluated in patients (pts) with SCD, first in a single dose (SD or SAD) cohort and then in multiple-dose (MD or MAD) cohorts (14-day and 12-week). Safety assessments include AEs, vital signs, ECGs and laboratory parameters. PK/PD blood sampling was performed on Day 1 (SAD/MAD) and Day 14 (MAD) and up to 72 h after the last dose and at the end-of-study visit. […]
Four healthy SAD cohorts were evaluated at doses of 200, 400, 700, and 1000 mg, and four healthy MAD cohorts received 200 to 600 mg total daily doses for 14 days at QD or BID dosing (100 mg BID, 200 mg BID, 300 mg BID, and 400 mg QD). […]

[3] = target: T1, PKR in mouse red blood cells (Mus musculus, UniProt P53657); test: PKR activation in mouse red blood cells; assay type: cell-based; settings: mouse RBCs
T1 construct: endogenous in cells; host or cells: mouse RBCs isolated fresh from whole blood
T1 sequence (P53657 whole entry): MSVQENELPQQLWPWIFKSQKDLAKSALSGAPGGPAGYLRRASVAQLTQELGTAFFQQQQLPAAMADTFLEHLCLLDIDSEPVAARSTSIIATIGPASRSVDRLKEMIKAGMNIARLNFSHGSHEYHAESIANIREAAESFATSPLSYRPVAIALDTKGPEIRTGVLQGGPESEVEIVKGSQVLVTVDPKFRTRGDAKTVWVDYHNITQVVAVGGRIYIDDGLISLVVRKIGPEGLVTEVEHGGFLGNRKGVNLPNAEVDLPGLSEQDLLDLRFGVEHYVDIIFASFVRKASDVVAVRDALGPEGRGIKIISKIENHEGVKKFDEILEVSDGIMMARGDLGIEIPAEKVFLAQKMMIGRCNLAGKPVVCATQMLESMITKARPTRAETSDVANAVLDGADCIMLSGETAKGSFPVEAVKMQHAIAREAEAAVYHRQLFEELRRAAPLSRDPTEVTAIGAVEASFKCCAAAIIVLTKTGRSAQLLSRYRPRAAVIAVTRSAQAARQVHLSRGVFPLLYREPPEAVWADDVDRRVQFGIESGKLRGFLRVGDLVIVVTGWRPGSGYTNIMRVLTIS
Procedure: The activation of wt-PKR by Compound 1 in mature human erythrocytes ex vivo was evaluated in purified RBCs purchased from Research Blood Components. Cells treated with Compound 1 for 3 hr in glucose-containing media were washed, lysed, and assayed using a Biovision Pyruvate Kinase Assay (K709-100). The assay was repeated multiple times to account for donor-to-donor variability and the relatively narrow dynamic range.
Mouse RBCs were isolated fresh from whole blood using a Ficoll gradient and assayed with methods similar to those used in the human RBCs assays.

Human SCD cells = test: Ex vivo sickling under severe hypoxic conditions (2% oxygen); assay type: cell-based; settings: 10 μM
Procedure: Red blood cells from SCD patients were used to evaluate the effects of Compound 1 on Hgb affinity for oxygen (i.e., oxygen affinity) and sickling under hypoxic conditions. Cells were incubated at 37° C. for 1, 2, and 3 hr with HEPES buffered saline (HBS) (untreated), HBS+dimethyl sulfoxide (DMSO) (vehicle), or 10 μM Compound 1. To assess oxygen dissociation, Hgb oxygen equilibrium curves were collected during deoxygenation.
Compound 1 (10 μM) reduced cell sickling under severe hypoxic conditions of 2% oxygen (PO2 of <20 mmHg) for up to 20 min (Table 9).

[4] = system: H295R adreno-cortical carcinoma cell line; test: Steroid modulation screen in vitro; assay type: cell-based; settings: tested at 200 to 0.0002 μM; only at the top concentration
Procedure: (§1) To assess potential effects on steroidogenesis, Compound 1 was screened for steroid modulation in vitro using the H295R adreno-cortical carcinoma cell line (at 200 to 0.0002 μM) and in an assay to monitor cell viability (MTT Kit). Compound 1 indicated steroid modulation potential (% over vehicle) only at 200 µM, the top concentration tested, with 100% cellular viability at concentrations ≤20 μM (90% viability at 200 μM).

[5] = Phase 1, SCD patients single 700 mg dose: safety; assay type: in vivo, human
Procedure: In this study, SAD/MAD cohorts are randomized (3 to 1) to receive Compound 1 or placebo (P). Compound 1 was evaluated first in 4 healthy SAD cohorts and 4 healthy MAD (14-day dosing period) cohorts. Based on the safety, and PK/PD profile from HS, Compound 1 is then evaluated in 1 SCD SAD cohort and 2 SCD MAD cohorts. Specifically, based on the safety and pharmacokinetic/pharmacodynamics (PK/PD) profile in healthy volunteer studies, Compound 1 is evaluated in patients (pts) with SCD, first in a single dose (SD or SAD) cohort and then in multiple-dose (MD or MAD) cohorts (14-day and 12-week). Safety assessments include AEs, vital signs, ECGs and laboratory parameters. PK/PD blood sampling was performed on Day 1 (SAD/MAD) and Day 14 (MAD) and up to 72 h after the last dose and at the end-of-study visit. PD parameters included 2,3-DPG, ATP, and p50 in all cohorts with additional PD studies (including oxygen scan) performed only in the SCD cohorts. PD parameters included 2,3-DPG, ATP, p50, RBC deformability with controlled deoxygenation and reoxygenation (Lorrca® oxygen scan) and varying osmolality (Lorrca® osmoscan)). To maintain study blind, pt identifiers were removed when needed.
In the SD cohort, 7 pts (2 males, 5 females, all HbSS) received 700 mg Compound 1 (n=5) or placebo (n=2).
All SCD patients who received a single 700 mg dose of Compound 1 or placebo were monitored for adverse events for 7 days. The incidence of treatment emergent adverse events (TEAEs) in SCD patients receiving Compound 1 (700 mg) or placebo are reported in Table 23. Six TEAEs were reported in 4 patients; all TEAEs were grade 1 and transient. Specifically, six TEAEs were reported in 4 of 7 ([…]) patients, including 3 TEAEs (arthralgia, headache, palpitations) in 2 of 5 ([…]) pts receiving Compound 1 and 3 TEAEs (back pain, myalgia, pruritis) in 2 of 2 (100%) pts receiving placebo; all TEAEs were grade 1 and transient. […] One possibly related TEAE (palpitations) occurred about 8 hours post dose. No other symptoms were observed, and the palpitations resolved in <1 minute. […] The single 700 mg dose of Compound 1 was considered tolerable, and the first multiple dose SCD cohort (“Dose 1” in FIG. 28) was initiated.

[6] = system: H295R adreno-cortical carcinoma cell line; test: Cell viability (MTT Kit); assay type: cell-based
Procedure: as §1

For `O=C([C@H](CO)c1ccccc1)N1CC2=C(C1)CN(S(=O)(=O)c1cnc3c(c1)OCCO3)C2` (single isomer, unassigned) [Compound 1], which “increase in ATP levels compared to pre-treatment” value ([1]; 550 mg/kg daily for 28 days (highest dose)) is on record?
Its value is 90%.

What about the “decrease in 2,3-DPG from pretreatment levels” value ([1]; daily doses 100, 350 and 550 mg/kg for 28 days) of the same molecule?
Its value is ≤ 40%.

What about the “exposure under fed/fasted conditions” value ([2]; food effect cohort, 200 mg) of the same molecule?
Its value is “similar”.

What about the “observed clearance on day 1 and day 14” value ([2]; healthy subjects, 14 days of dosing) of the same molecule?
The value was “unchanged”.

And the “time of pharmacokinetic maximum” value ([2]; healthy volunteers, single dose 400 mg, FIG. 43)?
The value was 1 to 2 h.

And the “Max-Min (%)” value ([3]; individual replicates 1-2)?
Its value is <50% and <100%.

What about the “Max-Min (%), mean” value ([3]; mean) of the same molecule?
The value was <100%.

What about the “% Protection” value (Human SCD cells; 15 min in hypoxic conditions (maximum)) of the same molecule?
The value was 16%.

What about the “Net % of Sickled Cells” value (Human SCD cells; 20 min in hypoxic conditions, DMSO 71) of the same molecule?
Its value is 60%.

And the concentration at which steroid modulation potential (% over vehicle) was indicated [4]?
Its concentration at which steroid modulation potential (% over vehicle) was indicated is 200 µM.

And the “serious adverse events / TEAEs leading to withdrawal” value ([5]; SCD single dose cohort)?
Its value is “No serious adverse events (SAEs) or TEAEs leading to pt withdrawal”.

What about the “Any TEAE, n (%)” value ([5]; SCD, 700 mg single dose, N = 5) of the same molecule?
The value was 2 (40) n (%).

What about the “TEAE related to study drug, n (%)” value ([5]; SCD, 700 mg single dose, N = 5) of the same molecule?
The value was 1 (20) n (%).

And the pts with TEAEs (2 of 5) ([5]; SCD, 700 mg single dose, 3 TEAEs (arthralgia, headache, palpitations), grade 1)?
Its pts with TEAEs (2 of 5) is 40%.

And the cellular viability ([6]; 200 μM)?
The cellular viability was 90%.

And the cellular viability ([6]; concentrations ≤20 μM)?
Its cellular viability is 100%.
